# Experimental data reported in article PMC11637875, “Discovery of novel PARP1/NRP1 dual-targeting inhibitors with strong antitumor potency” (Frontiers in Pharmacology, 2024).
# Read-outs that look alike come from different tables or passages of the source.
# Assays:
# NRP1 [1] = biological target: T1, NRP1 (Homo sapiens, UniProt O14786); assay: In vitro NRP1 inhibition assay (125I-VEGF-A binding displacement, NRP1-transfected HUVEC cells); settings: 125I-VEGF-A165 binding competition, 2 h, 4°C
# T1 construct: expressed in transfected cells; host or cells: HUVEC, adenovirus NRP1
# Experimental: The method was performed as described previously ([Jarvis et al., 2010]). Radiolabeled binding displacement experiments were performed as described previously ([Jia et al., 2006]). Confluent adenovirus NRP1-transfected HUVEC cells in 96-well plates were washed twice with PBS. At 4°C various concentrations of compounds diluted in binding medium (Dulbecco’s modified Eagle’s medium, 25 mM HEPES, pH 7.3, containing 0.1% BSA) were added, followed by addition of the indicated concentration of ^125I-VEGF-A (1,200–1800 Ci/mmol, GE Healthcare, United Kingdom). After 2 h of incubation at 4°C, the medium was aspirated, and washed four times with cold phosphate-buffered saline. The cells were lysed with 0.25 M NaOH, 0.5% SDS solution, and the bound radioactivity of the lysates was measured. IC50 values were calculated from the competition curves of the compounds in the ^125I-VEGF-A165 binding assay using GraphPad Prism 9 software. Using log(inhibitors) vs response-Variable slope equation in the GraphPad Prism 9 to fit the curves. The equation was as follows: (Top and Bottom are the responses, respectively, at the top and bottom of the curve, Y is the inhibitory response at a given compound concentration X, and the Hillslope describes the steepness of the curve.) Y=Bottom+Top−Bottom/1+10^logIC50−xHillslope
# T1 sequence (O14786 22-923): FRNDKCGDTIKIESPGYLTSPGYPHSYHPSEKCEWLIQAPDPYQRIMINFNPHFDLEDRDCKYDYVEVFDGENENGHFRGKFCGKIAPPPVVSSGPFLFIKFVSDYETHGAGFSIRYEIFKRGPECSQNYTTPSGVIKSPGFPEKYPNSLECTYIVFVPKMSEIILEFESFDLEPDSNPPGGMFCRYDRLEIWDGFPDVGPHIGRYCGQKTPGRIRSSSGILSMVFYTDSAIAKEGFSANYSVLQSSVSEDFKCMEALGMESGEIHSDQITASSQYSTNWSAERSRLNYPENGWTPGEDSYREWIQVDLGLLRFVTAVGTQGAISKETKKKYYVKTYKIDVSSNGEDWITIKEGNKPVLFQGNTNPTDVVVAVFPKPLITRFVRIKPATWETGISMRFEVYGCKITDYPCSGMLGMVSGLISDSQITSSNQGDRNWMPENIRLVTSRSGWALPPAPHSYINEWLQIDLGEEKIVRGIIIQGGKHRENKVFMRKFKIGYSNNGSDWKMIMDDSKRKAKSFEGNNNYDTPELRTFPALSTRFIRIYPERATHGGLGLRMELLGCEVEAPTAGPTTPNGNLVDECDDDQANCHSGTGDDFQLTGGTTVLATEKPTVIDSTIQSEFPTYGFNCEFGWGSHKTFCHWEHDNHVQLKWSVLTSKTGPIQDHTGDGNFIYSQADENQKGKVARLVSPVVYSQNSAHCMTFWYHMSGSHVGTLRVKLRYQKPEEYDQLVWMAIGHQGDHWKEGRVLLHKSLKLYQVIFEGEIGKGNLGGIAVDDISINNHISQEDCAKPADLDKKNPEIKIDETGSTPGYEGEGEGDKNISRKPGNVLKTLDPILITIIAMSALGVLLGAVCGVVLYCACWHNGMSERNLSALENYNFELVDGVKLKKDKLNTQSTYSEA
# PARP1 [2] = biological target: T2, PARP1 (Homo sapiens, UniProt P09874); assay: Microscale thermophoresis (MST) assay; assay type: binding; settings: labeled protein 50 nM; for Kd: read-out: PARP1 (K d)
# T2 construct: purchased Abcam
# T2 sequence (P09874 whole entry): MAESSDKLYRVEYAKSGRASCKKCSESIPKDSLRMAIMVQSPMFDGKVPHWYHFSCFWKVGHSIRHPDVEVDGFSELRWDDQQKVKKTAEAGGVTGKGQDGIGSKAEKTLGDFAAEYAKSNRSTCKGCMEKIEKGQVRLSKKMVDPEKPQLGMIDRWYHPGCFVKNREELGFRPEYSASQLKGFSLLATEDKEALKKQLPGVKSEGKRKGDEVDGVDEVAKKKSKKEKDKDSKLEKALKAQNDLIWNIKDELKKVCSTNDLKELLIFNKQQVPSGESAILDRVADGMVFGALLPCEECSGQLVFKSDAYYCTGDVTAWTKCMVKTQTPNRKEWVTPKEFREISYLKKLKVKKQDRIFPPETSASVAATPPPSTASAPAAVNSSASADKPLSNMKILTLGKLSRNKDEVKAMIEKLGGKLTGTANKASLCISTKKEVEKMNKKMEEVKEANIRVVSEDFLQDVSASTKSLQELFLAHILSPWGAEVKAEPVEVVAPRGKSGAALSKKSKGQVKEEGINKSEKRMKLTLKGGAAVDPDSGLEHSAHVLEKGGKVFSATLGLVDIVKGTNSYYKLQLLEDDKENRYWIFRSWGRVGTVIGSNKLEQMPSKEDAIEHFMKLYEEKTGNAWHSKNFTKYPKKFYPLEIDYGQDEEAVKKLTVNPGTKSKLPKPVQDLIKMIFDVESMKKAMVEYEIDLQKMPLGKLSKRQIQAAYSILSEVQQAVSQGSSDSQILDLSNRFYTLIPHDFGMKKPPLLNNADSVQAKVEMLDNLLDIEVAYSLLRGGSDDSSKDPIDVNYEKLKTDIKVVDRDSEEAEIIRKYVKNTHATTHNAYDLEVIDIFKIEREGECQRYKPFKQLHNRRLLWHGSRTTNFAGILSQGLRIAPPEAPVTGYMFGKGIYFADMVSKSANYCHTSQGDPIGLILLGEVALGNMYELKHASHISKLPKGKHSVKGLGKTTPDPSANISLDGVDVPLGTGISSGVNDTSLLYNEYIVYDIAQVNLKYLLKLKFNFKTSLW
# Experimental: (§1) All samples were diluted in 1 × PBST. […] Affinity Analysis software.
# NRP1 [3] = biological target: T3, NRP1 (Homo sapiens, UniProt O14786); assay: Microscale thermophoresis (MST) assay; assay type: binding; settings: labeled protein 50 nM; for Kd: read-out: NRP1 (K d)
# T3 construct: purchased Abcam
# T3 sequence (O14786 22-644 isoform O14786-2 limits assumed): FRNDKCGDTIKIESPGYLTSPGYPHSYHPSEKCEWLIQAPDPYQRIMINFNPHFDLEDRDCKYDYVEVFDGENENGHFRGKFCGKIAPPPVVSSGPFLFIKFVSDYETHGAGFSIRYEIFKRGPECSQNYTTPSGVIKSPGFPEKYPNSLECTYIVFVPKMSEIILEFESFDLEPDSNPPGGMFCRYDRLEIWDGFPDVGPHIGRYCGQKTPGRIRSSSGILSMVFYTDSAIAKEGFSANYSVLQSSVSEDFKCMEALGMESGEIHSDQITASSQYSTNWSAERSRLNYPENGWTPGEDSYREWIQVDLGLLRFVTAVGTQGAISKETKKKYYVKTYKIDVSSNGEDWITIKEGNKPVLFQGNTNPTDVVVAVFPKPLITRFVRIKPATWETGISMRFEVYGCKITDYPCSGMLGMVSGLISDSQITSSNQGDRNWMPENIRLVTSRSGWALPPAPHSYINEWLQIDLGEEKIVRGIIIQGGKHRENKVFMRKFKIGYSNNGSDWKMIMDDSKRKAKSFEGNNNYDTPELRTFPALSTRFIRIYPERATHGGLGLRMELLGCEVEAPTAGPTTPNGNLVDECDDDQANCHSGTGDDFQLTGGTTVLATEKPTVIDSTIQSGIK
# Experimental: as §1
# MDA-MB-231 cells = assay: In vitro antiproliferation assay (MTT); assay type: cell-based; settings: Homo sapiens
# Experimental: Cell viability was measured by MTT assays. […] Afterward, the medium was removed. MTT (5 mg/mL) was dissolved in phosphate-buffered saline (PBS) and filter-sterilized, and then, 20 μL of the prepared MTT solution was added to each well, and the cells were incubated for another 4 h until a purple precipitate was visible. The supernatant was removed by centrifugation, and DMSO (150 μL/well) was added to dissolve the insoluble crystals. The absorbance was determined using an enzyme-linked immunosorbent assay reader at a test wavelength of 570 nm. The assays were performed three times in a parallel manner. The non-linear regression was used to plot a Dose-Response-Inhibition to determine the value of the IC50. […] The data were analyzed using GraphPad Prism 9 software.
# [4] = system: MDA-MB-231 xenograft tumor; assay: In vivo antitumor assay; set-up: species or system BALB/c nude mice; settings: 5 mg/kg intraperitoneally every 3 days, n = 6
# Experimental: Twenty-four female BALB/c nude mice (body weight 16–20 g) at 4–6 weeks old were purchased from Changzhou Cavens Experimental Animal Limited Company (Changzhou, China). Mice were adaptively housed for 1 week in a specific pathogen-free (SPF) environment with a temperature of 25°C ± 2°C, a 12-hour light/dark cycle, and free access to food and water. MDA-MB-231 breast cancer cells (200 μL, 1×10^7 cells) were suspended in PBS to formulate cell suspension, and 0.1 mL of cells were injected into the axilla of the left forelimb of mice by subcutaneous injection. […] Equal concentrations of drug-free PBS buffer were used for the vehicle group. Each group was administered every 3 days and the body weight and tumor size of the mice were recorded. Mice were executed when the tumor volume approached 2000 mm^3. Tumor volumes of all mice were measured using vernier calipers. The mice were placed belly up and the longest diameter of the tumor was measured with the inner bayonet of a vernier caliper, and the shortest transverse diameter perpendicular to the diameter was measured with the inner bayonet of a vernier caliper and recorded. Tumor volume was estimated according to the following formula: (c × c × d)/2 (c, the smallest diameter; d, the largest diameter). All animal experiments were performed and approved by the Ethics Committee of China Pharmaceutical University.
# PARP1 [5] = biological target: T2, PARP1; assay: In vitro PARP1 inhibition assay (chemiluminescence); assay type: biochemical; settings: PARP1 enzyme 0.6 units/well
# Experimental: In each well, 50 μL of 1 × PARP1 buffer was added and incubated for 30 min at room temperature. The 1 × PARP1 buffer was removed from the wells, and then 25 μL of 1 × PARP1 cocktail was added to each well along with varying doses of compounds and PARP1 enzyme (0.6 units/well). Incubated and washed twice with PBS and 0.1% Triton X-100. Then added 50 μL Strep-HRP and washed twice. Equal volumes (100 μL) of PeroxyGlow A and B were added to each well and immediately take chemiluminescent readings. Data were analyzed by GraphPad Prism 9 software based on chemiluminescence readings of chemiluminescent substrates of Strep-HRP in each well. The IC50 value was were calculated by nonlinear curve fitting in GraphPad Prism 9.
# [6] = 168 h, MDA-MB-231, concentration needed to reduce cell growth by 50% following 7 days cell treatment, read-out: IC50
SMILES,IC50 (NRP1 [1]),"PARP1 (K d, nM) (PARP1 [2])",Kd (NRP1 [3]),IC50 (MDA-MB-231 cells; [6]),"body weight (g) in mice, mean ([4]; day 0)","tumor volume (mm^3), mean ([4]; day 0)","body weight (g) in mice, mean ([4]; day 3)","tumor volume (mm^3), mean ([4]; day 3)","body weight (g) in mice, mean ([4]; day 6)","tumor volume (mm^3), mean ([4]; day 6)","body weight (g) in mice, mean ([4]; day 9)","tumor volume (mm^3), mean ([4]; day 9)","body weight (g) in mice, mean ([4]; day 12)","tumor volume (mm^3), mean ([4]; day 12)","PARP1 (IC50, nM) (PARP1 [5])","NRP1 (IC50, nM) (NRP1 [1])","NRP1 (K d, nM) (NRP1 [3])","IC50 (MDA-MB-231 cells; MDA-MB-231, 168 h)",Kd (PARP1 [2]),IC50 (PARP1 [5])
NC(N)=NCCC[C@H](NC(=O)c1sccc1NS(=O)(=O)c1cccc2nsnc12)C(=O)O [EG00229],640 ± 34.7 nM,no binding,519 nM,62400 nM,18.38 g,101 mm^3,18.51 g,275 mm^3,18.84 g,502 mm^3,19.19 g,976 mm^3,19.52 g,1352 mm^3,No inhibition,,,,,
"O=C(c1cc(Cc2n[nH]c(=O)c3ccccc23)ccc1F)N1CCN(C(=O)C2CC2)CC1 [Olaparib, olaparib]",,,,,18.29 g,103 mm^3,18.55 g,245 mm^3,19.12 g,329 mm^3,19.37 g,513 mm^3,19.59 g,733 mm^3,,No inhibition,no binding,960 nM,,
NC(N)=NCCC[C@H](NCNCCNC(=O)c1cc(Cc2n[nH]c(=O)c3ccccc23)ccc1F)C(=O)O [PPNR-1],94.1 ± 4.24 nM,,91.5 nM,890 nM,,,,,,,,,,,,,,,75.1 nM,70.3 ± 3.13 nM
NC(N)=NCCC[C@H](NCN1CCCN(C(=O)c2cc(Cc3n[nH]c(=O)c4ccccc34)ccc2F)C1)C(=O)O [PPNR-2],31.2 ± 3.95 nM,,31 nM,560 nM,,,,,,,,,,,,,,,28.4 nM,29.3 ± 2.57 nM
NC(N)=NCCC[C@H](NC/C=C/CNC(=O)c1cc(Cc2n[nH]c(=O)c3ccccc23)ccc1F)C(=O)O [PPNR-3],72.9 ± 3.41 nM,,71.3 nM,830 nM,,,,,,,,,,,,,,,61.1 nM,63.2 ± 4.02 nM
CN(CCNC(=O)c1cc(Cc2n[nH]c(=O)c3ccccc23)ccc1F)CN[C@@H](CCCN=C(N)N)C(=O)O [PPNR-5],57.1 ± 3.27 nM,,55.3 nM,720 nM,,,,,,,,,,,,,,,40 nM,41.4 ± 2.86 nM
